Each structure is given as a SMILES string.

As a reminder, the EC50 is the concentration needed to bring the measured effect to its halfway point.

In this assay the target is T1, human TREM2 (Homo sapiens, UniProt Q9NZC2).
T1 construct: expressed in transfected cells; host or cells: HEK293T
T1 sequence (Q9NZC2 19-230): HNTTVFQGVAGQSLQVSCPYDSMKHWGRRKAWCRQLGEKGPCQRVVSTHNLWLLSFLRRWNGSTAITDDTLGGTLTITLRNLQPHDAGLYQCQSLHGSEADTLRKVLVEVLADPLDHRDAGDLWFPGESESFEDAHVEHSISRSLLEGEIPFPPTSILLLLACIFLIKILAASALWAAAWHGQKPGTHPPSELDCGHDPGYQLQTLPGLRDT
T1 sequence (O43914 22-113 partner): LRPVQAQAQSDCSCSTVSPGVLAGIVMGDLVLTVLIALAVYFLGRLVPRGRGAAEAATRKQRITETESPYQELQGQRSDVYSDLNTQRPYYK
Kind of assay: TREM2 agonist potency by cellular phosphorylation of Syk (AlphaLisa) in HEK293T-hTREM2 cells. Particulars: HEK293 cells expressing human TREM2 and DAP12, Table D-2. In kind it is cell-based. Put shortly: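 Agonist EC50 from a variable-slope four-parameter fit of % activation, based on AlphaLisa phospho-Syk levels in lysates. Cells: HEK293T-hTREM2 (with DAP12), treated 45 min at room temperature with compound in assay buffer.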
A general note: Bead proximity is the source of the signal in Alpha formats.
`Cc1nc2nc([C@H]3CCO[C@@H](c4cnn(C5CC5)c4)C3)nc(-c3ccc(OC(F)(F)F)cc3F)c2nc1C` [Example I-1313, 2-((2R,4S)-2-(1-cyclopropyl-1H-pyrazol-4-yl)tetrahydro-2H-pyran-4-yl)-4-(2-fluoro-4-(trifluoromethoxy)phenyl)-6,7-dimethylpteridine] showed an EC50 of 0.05 to 0.5 µM.

The compound `Cc1nc2nc([C@H]3CCO[C@@H](c4cnn(C5CC5)c4)C3)nc(-c3ccc(F)cc3F)c2nc1C(F)F` [Example I-1323, 2-[(2R,4S)-2-(1-cyclopropylpyrazol-4-yl)tetrahydropyran-4-yl]-6-(difluoromethyl)-4-(2,4-difluorophenyl)-7-methyl-pteridine] registered an EC50 of under 0.05 µM. `Cc1cc2c(C3CCC(C(F)F)CC3)nc(N3C[C@@H](C)O[C@@H](c4cnn(C5CC5)c4)C3)nc2nc1C` (stereo partly drawn) [Example I-1328, (2S,6R)-2-(1-cyclopropylpyrazol-4-yl)-4-[4-[4-(difluoromethyl)cyclohexyl]-6,7-dimethyl-pyrido[2,3-d]pyrimidin-2-yl]-6-methyl-morpholine] came in with an EC50 of under 0.05 µM. Turning to `Cc1nc2nc(N3C[C@@H](CO)O[C@@H](c4cnn(C5CC5)c4)C3)nc(-c3ccc(F)cc3F)c2nc1C` [Example I-1333, [(2S,6S)-6-(1-cyclopropylpyrazol-4-yl)-4-[4-(2,4-difluorophenyl)-6,7-dimethyl-pteridin-2-yl]morpholin-2-yl]methanol], the EC50 was in the range of 0.05 to 0.5 µM. With `Cc1nc2nc(N3C[C@H](CO)O[C@H](c4cnn(C5CC5)c4)C3)nc(-c3ccc(F)cc3F)c2nc1C` [Example I-1334, [(2R,6R)-6-(1-cyclopropylpyrazol-4-yl)-4-[4-(2,4-difluorophenyl)-6,7-dimethyl-pteridin-2-yl]morpholin-2-yl]methanol], the EC50 is 3 to 100 µM.

As for `Fc1cc(Cl)ccc1-c1nc([C@@H]2CCO[C@H](c3cnn(C4CC4)c3)C2)nc2nc(CC(F)(F)F)cnc12` [Example I-1338, 4-(4-chloro-2-fluoro-phenyl)-2-[(2S,4R)-2-(1-cyclopropylpyrazol-4-yl)tetrahydropyran-4-yl]-7-(2,2,2-trifluoroethyl)pteridine], the EC50 is 0.05 to 0.5 µM. Compound `Cc1nc2nc(N3C[C@@H](C)O[C@@H](c4cnn(C5CC5)c4)C3)nc([C@H]3C[C@H](C(F)(F)F)C3)c2nc1C` [Example I-1365, (2S,6R)-2-(1-cyclopropylpyrazol-4-yl)-4-[6,7-dimethyl-4-[3-(trifluoromethyl)cyclobutyl]pteridin-2-yl]-6-methyl-morpholine] had an EC50 of under 0.05 µM. To `Cc1nc2nc(N3C[C@@H](C4CC4)O[C@@H](c4cnn(C5CC5)c4)C3)nc(-c3ccc(F)cc3F)c2nc1C` [Example I-1381] belongs under 0.05 µM. To `Cc1nc2nc(N3C[C@@H](C)O[C@@H](c4cnn(C5CC5)c4F)C3)nc(-c3ccc(F)cc3F)c2nc1C` [Example I-1401, (2S,6R)-2-(1-cyclopropyl-5-fluoro-pyrazol-4-yl)-4-[4-(2,4-difluorophenyl)-6,7-dimethyl-pteridin-2-yl]-6-methyl-morpholine] belongs under 0.05 µM; to `Cc1nc2nc(C3CCO[C@@H](c4cnn(C5CC5)c4)C3)nc([C@H]3C[C@@H](C(F)(F)F)C3)c2nc1C` (stereo partly drawn) [Example I-1414, 2-[(2R)-2-(1-cyclopropylpyrazol-4-yl)tetrahydropyran-4-yl]-6,7-dimethyl-4-[3-(trifluoromethyl)cyclobutyl]pteridine], under 0.05 µM. The compound `Cc1nc2nc(C3CCO[C@@H](c4cnn(C5CC5)c4)C3)nc([C@H]3C[C@H](C(F)(F)F)C3)c2nc1C` (stereo partly drawn) [Example I-1432, 2-[(2R)-2-(1-cyclopropylpyrazol-4-yl)tetrahydropyran-4-yl]-6,7-dimethyl-4-[3-(trifluoromethyl)cyclobutyl]pteridine] gave an EC50 of under 0.05 µM. `COCn1cc([C@H]2CN(c3nc(-c4ccc(F)cc4F)c4nc(C)c(C)nc4n3)C[C@@H](C)O2)cn1` [Example I-1441, (2S,6R)-4-[4-(2,4-difluorophenyl)-6,7-dimethyl-pteridin-2-yl]-2-[1-(methoxymethyl)pyrazol-4-yl]-6-methyl-morpholine]: the EC50 was under 0.05 µM.

The record behind these values is patent US20240309003A1, “HETEROCYCLIC COMPOUNDS AS TRIGGERING RECEPTOR EXPRESSED ON MYELOID CELLS 2 AGONISTS AND METHODS OF USE” (Vigil Neuroscience, Inc., priority 2021, published 2024).
